In US10947271B2, “Antibacterial agents” (THE UNIVERSITY OF QUEENSLAND, priority 2014, dated 2021):

Experiments:
Format in all cases: cell-based
Conditions in all cases: 24 h incubation, visual reading
[1] = system: Staphylococcus aureus MRSA ATCC 43300; assay: MIC assay, S. aureus MRSA ATCC 43300
In short: (§1)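 Twofold broth microdilution in Mueller Hinton broth; compounds tested from 8 μg/ml to 0.003 μg/ml. Mid-log cultures were inoculated at 5×10e5 CFU/mL and incubated 24 h at 37° C. MIC was the lowest concentration with no visible growth.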

[2] = system: Streptococcus pneumoniae MDR ATCC 700677; assay: MIC assay, S. pneumoniae MDR ATCC 700677
In short: as §1

[3] = system: Enterococcus faecium MDR Van A ATCC 51559; assay: MIC assay, E. faecium MDR Van A ATCC 51559
In short: as §1

SMILES | Minimum Inhibitory Concentration (MIC) Staph. aureus ATCC43300 [1] | Minimum Inhibitory Concentration (MIC) S. pneumoniae ATCC 700677 [2] | Minimum Inhibitory Concentration (MIC) E. faecium ATCC51559 [3]
CN[C@H](CC(C)C)C(=O)N[C@H]1C(=O)N[C@@H](CC(N)=O)C(=O)N[C@H]2C(=O)N[C@H]3C(=O)N[C@H](C(=O)N[C@H](C(=O)NCCCC[C@H](NC(=O)[C@H](CCCCN)NC(=O)[C@H](CCCCN)NC(=O)CCCOc4ccccc4)C(=O)O)c4cc(O)cc(O)c4-c4cc3ccc4O)[C@H](O)c3ccc(c(Cl)c3)Oc3cc2cc(c3O[C@@H]2O[C@H](CO)[C@@H](O)[C@H](O)[C@H]2O[C@H]2C[C@](C)(N)[C@H](O)[C@H](C)O2)Oc2ccc(cc2Cl)[C@H]1O [MCC_005501] | xx (xx = 1-4) | xx (xx = 1-4) | x (x = >4)
CCCCCCCCCOc1ccc(C(=O)NC(CCCCN)C(=O)NC(CCCCN)C(=O)NC(CCCCNC(=O)C2NC(=O)C3NC(=O)C(NC(=O)C4NC(=O)C(CC(N)=O)NC(=O)C(NC(=O)C(CC(C)C)NC)C(O)c5ccc(c(Cl)c5)Oc5cc4cc(c5OC4OC(CO)C(O)C(O)C4OC4CC(C)(N)C(O)C(C)O4)Oc4ccc(cc4Cl)C3O)c3ccc(O)c(c3)-c3c(O)cc(O)cc32)C(=O)NC)cc1 (stereo not drawn) [MCC_000504] | xxxxx (xxxxx = <0.01) | xxxxx (xxxxx = <0.01) | xxx (xxx = 0.1-<1)
CCCCCCCN1CCC(C(=O)N[C@@H](CCCCN)C(=O)N[C@@H](CCCCN)C(=O)N[C@@H](CCCCNC(=O)[C@H]2NC(=O)[C@H]3NC(=O)[C@H](NC(=O)[C@@H]4NC(=O)[C@H](CC(N)=O)NC(=O)[C@H](NC(=O)[C@@H](CC(C)C)NC)[C@H](O)c5ccc(c(Cl)c5)Oc5cc4cc(c5O[C@@H]4O[C@H](CO)[C@@H](O)[C@H](O)[C@H]4O[C@H]4C[C@](C)(N)[C@H](O)[C@H](C)O4)Oc4ccc(cc4Cl)[C@H]3O)c3ccc(O)c(c3)-c3c(O)cc(O)cc32)C(N)=O)CC1 [MCC_004820] | xxxx (xxxx = 0.01-<0.1) | xxx (xxx = 0.1-<1) | x (x = >4)
CCCCCCCCC(=O)NC(CCCCN)C(=O)NC(CCCCN)C(=O)NC(CCCCNC(=O)C1NC(=O)C2NC(=O)C(NC(=O)C3NC(=O)C(CC(N)=O)NC(=O)C(NC(=O)C(CC(C)C)NC)C(O)c4ccc(c(Cl)c4)Oc4cc3cc(c4OC3OC(CO)C(O)C(O)C3OC3CC(C)(N)C(O)C(C)O3)Oc3ccc(cc3Cl)C2O)c2ccc(O)c(c2)-c2c(O)cc(O)cc21)C(=O)NC (stereo not drawn) [MCC_000491] | xxx (xxx = 0.1-<1) | xxx (xxx = 0.1-<1) | x (x = >4)
CCCCCCCC(=O)N[C@@H](CCCCN)C(=O)N[C@@H](CCCCNC(=O)[C@H]1NC(=O)[C@H]2NC(=O)[C@H](NC(=O)[C@@H]3NC(=O)[C@H](CC(N)=O)NC(=O)[C@H](NC(=O)[C@@H](CC(C)C)NC)[C@H](O)c4ccc(c(Cl)c4)Oc4cc3cc(c4O[C@@H]3O[C@H](CO)[C@@H](O)[C@H](O)[C@H]3O[C@H]3C[C@](C)(N)[C@H](O)[C@H](C)O3)Oc3ccc(cc3Cl)[C@H]2O)c2ccc(O)c(c2)-c2c(O)cc(O)cc21)C(=O)O [MCC_005222] | xx (xx = 1-4) | xx (xx = 1-4) | x (x = >4)
CCCCCCC(CCCC)C(=O)NCCCCC(NC(=O)C(CCCC)CCCCCC)C(=O)NC(CCCCN)C(=O)NC(CCCCNC(=O)C1NC(=O)C2NC(=O)C(NC(=O)C3NC(=O)C(CC(N)=O)NC(=O)C(NC(=O)C(CC(C)C)NC)C(O)c4ccc(c(Cl)c4)Oc4cc3cc(c4OC3OC(CO)C(O)C(O)C3OC3CC(C)(N)C(O)C(C)O3)Oc3ccc(cc3Cl)C2O)c2ccc(O)c(c2)-c2c(O)cc(O)cc21)C(=O)NC (stereo not drawn) [MCC_000497] | xxx (xxx = 0.1-<1) | xxx (xxx = 0.1-<1) | xxx (xxx = 0.1-<1)
CCCCCCCOc1ccc(C(=O)NC(CCCCN)C(=O)NC(CCCCN)C(=O)NC(CCCCNC(=O)C2NC(=O)C3NC(=O)C(NC(=O)C4NC(=O)C(CC(N)=O)NC(=O)C(NC(=O)C(CC(C)C)NC)C(O)c5ccc(c(Cl)c5)Oc5cc4cc(c5OC4OC(CO)C(O)C(O)C4OC4CC(C)(N)C(O)C(C)O4)Oc4ccc(cc4Cl)C3O)c3ccc(O)c(c3)-c3c(O)cc(O)cc32)C(=O)NC)cc1 (stereo not drawn) [MCC_000503] | xxxxx (xxxxx = <0.01) | xxxxx (xxxxx = <0.01) | xx (xx = 1-4)
CCCCCCCCCCCCC(=O)NC(CCCCN)C(=O)NC(CCCCN)C(=O)NC(CCCCNC(=O)C1NC(=O)C2NC(=O)C(NC(=O)C3NC(=O)C(CC(N)=O)NC(=O)C(NC(=O)C(CC(C)C)NC)C(O)c4ccc(c(Cl)c4)Oc4cc3cc(c4OC3OC(CO)C(O)C(O)C3OC3CC(C)(N)C(O)C(C)O3)Oc3ccc(cc3Cl)C2O)c2ccc(O)c(c2)-c2c(O)cc(O)cc21)C(=O)NC (stereo not drawn) [MCC_000494] | xxxxx (xxxxx = <0.01) | xxxxx (xxxxx = <0.01) | xx (xx = 1-4)
CCCCCCCCCCCCCC(=O)N[C@@H](CCCCN)C(=O)N[C@@H](CCCCN)C(=O)NCCCNC(=O)[C@H]1NC(=O)[C@H]2NC(=O)[C@H](NC(=O)[C@@H]3NC(=O)[C@H](CC(N)=O)NC(=O)[C@H](NC(=O)[C@@H](CC(C)C)NC)[C@H](O)c4ccc(c(Cl)c4)Oc4cc3cc(c4O[C@@H]3O[C@H](CO)[C@@H](O)[C@H](O)[C@H]3O[C@H]3C[C@](C)(N)[C@H](O)[C@H](C)O3)Oc3ccc(cc3Cl)[C@H]2O)c2ccc(O)c(c2)-c2c(O)cc(O)cc21 [MCC_000345] | xxxxx (xxxxx = <0.01) | xxxxx (xxxxx = <0.01) | xxxx (xxxx = 0.01-<0.1)
CCCCCCCCCCC(=O)N[C@@H](CCCCN)C(=O)N[C@@H](CCCCN)C(=O)N[C@@H](CCCCNC(=O)[C@H]1NC(=O)[C@H]2NC(=O)[C@H](NC(=O)[C@@H]3NC(=O)[C@H](CC(N)=O)NC(=O)[C@H](NC(=O)[C@@H](CC(C)C)NC)[C@H](O)c4ccc(c(Cl)c4)Oc4cc3cc(c4O[C@@H]3O[C@H](CO)[C@@H](O)[C@H](O)[C@H]3O[C@H]3C[C@](C)(N)[C@H](O)[C@H](C)O3)Oc3ccc(cc3Cl)[C@H]2O)c2ccc(O)c(c2)-c2c(O)cc(O)cc21)C(=O)NC [MCC_000292] | xxxx (xxxx = 0.01-<0.1) | xxxx (xxxx = 0.01-<0.1) | xx (xx = 1-4)
CCCCCCCCCCC(=O)N[C@@H](CCCCN)C(=O)N[C@@H](CCCCN)C(=O)NCc1cccc(CNC(=O)[C@H]2NC(=O)[C@H]3NC(=O)[C@H](NC(=O)[C@@H]4NC(=O)[C@H](CC(N)=O)NC(=O)[C@H](NC(=O)[C@@H](CC(C)C)NC)[C@H](O)c5ccc(c(Cl)c5)Oc5cc4cc(c5O[C@@H]4O[C@H](CO)[C@@H](O)[C@H](O)[C@H]4O[C@H]4C[C@](C)(N)[C@H](O)[C@H](C)O4)Oc4ccc(cc4Cl)[C@H]3O)c3ccc(O)c(c3)-c3c(O)cc(O)cc32)c1 [MCC_005044] | xxxxx (xxxxx = <0.01) | xxxxx (xxxxx = <0.01) | xxx (xxx = 0.1-<1)
CCCCCCCCCC(=O)NC(CCCCN)C(=O)NC(CCCCN)C(=O)NC(CCCCNC(=O)C1NC(=O)C2NC(=O)C(NC(=O)C3NC(=O)C(CC(N)=O)NC(=O)C(NC(=O)C(CC(C)C)NC)C(O)c4ccc(c(Cl)c4)Oc4cc3cc(c4OC3OC(CO)C(O)C(O)C3OC3CC(C)(N)C(O)C(C)O3)Oc3ccc(cc3Cl)C2O)c2ccc(O)c(c2)-c2c(O)cc(O)cc21)C(=O)NC (stereo not drawn) [MCC_000492] | xxxxx (xxxxx = <0.01) | xxxxxx | x (x = >4)
CCCCCCCCCCC(=O)N[C@@H](CCCCN)C(=O)N[C@@H](CCCCN)C(=O)N[C@@H](CCCCN)C(=O)NCCNC(=O)[C@H]1NC(=O)[C@H]2NC(=O)[C@H](NC(=O)[C@@H]3NC(=O)[C@H](CC(N)=O)NC(=O)[C@H](NC(=O)[C@@H](CC(C)C)NC)[C@H](O)c4ccc(c(Cl)c4)Oc4cc3cc(c4O[C@@H]3O[C@H](CO)[C@@H](O)[C@H](O)[C@H]3O[C@H]3C[C@](C)(N)[C@H](O)[C@H](C)O3)Oc3ccc(cc3Cl)[C@H]2O)c2ccc(O)c(c2)-c2c(O)cc(O)cc21 [MCC_005182] | xxxxx (xxxxx = <0.01) | xxxx (xxxx = 0.01-<0.1) | xx (xx = 1-4)
CCCCCCCCCCC(=O)N[C@@H](CCCCN)C(=O)NCCCNC(=O)[C@H]1NC(=O)[C@H]2NC(=O)[C@H](NC(=O)[C@@H]3NC(=O)[C@H](CC(N)=O)NC(=O)[C@H](NC(=O)[C@@H](CC(C)C)NC)[C@H](O)c4ccc(c(Cl)c4)Oc4cc3cc(c4O[C@@H]3O[C@H](CO)[C@@H](O)[C@H](O)[C@H]3O[C@H]3C[C@](C)(N)[C@H](O)[C@H](C)O3)Oc3ccc(cc3Cl)[C@H]2O)c2ccc(O)c(c2)-c2c(O)cc(O)cc21 [MCC_005198] | xxxx (xxxx = 0.01-<0.1) | xxxx (xxxx = 0.01-<0.1) | xx (xx = 1-4)
CCCCC=CCCCCCCCC(=O)NC(CCCCN)C(=O)NC(CCCCN)C(=O)NC(CCCCNC(=O)C1NC(=O)C2NC(=O)C(NC(=O)C3NC(=O)C(CC(N)=O)NC(=O)C(NC(=O)C(CC(C)C)NC)C(O)c4ccc(c(Cl)c4)Oc4cc3cc(c4OC3OC(CO)C(O)C(O)C3OC3CC(C)(N)C(O)C(C)O3)Oc3ccc(cc3Cl)C2O)c2ccc(O)c(c2)-c2c(O)cc(O)cc21)C(=O)NC (stereo not drawn) [MCC_000498] | xx (xx = 1-4) | xx (xx = 1-4) | x (x = >4)
